Laboratory results as given in patent EP2787003A1, “Antimicrobial peptide produced by marine sponge-derived Bacillus subtilis” (priority 2013, dated 2014).

Columns and labels:
[1] = test system: L. monocytogenes and B. cereus; assay: Storage stability, bioactivity by spot on lawn assay; format: physicochemical
Description: Untreated samples were used as controls.

hVISA = assay: Spot on lawn assay; format: cell-based, hVISA 35197; parameters: key: +, clear halo of growth inhibition; ++: multiple +, increased activity as assessed visually by the increased diameter of the inhibition zone; +++: multiple +, increased activity as assessed visually by the increased diameter of the inhibition zone; ++++: multiple +, increased activity as assessed visually by the increased diameter of the inhibition zone; +++++: multiple +, increased activity as assessed visually by the increased diameter of the inhibition zone; -, no inhibition; details: indicator hVISA
C. parapsilosis = assay: Spot on lawn assay; format: cell-based, Candida parapsilosis; parameters: key: +, clear halo of growth inhibition; ++: multiple +, increased activity as assessed visually by the increased diameter of the inhibition zone; +++: multiple +, increased activity as assessed visually by the increased diameter of the inhibition zone; ++++: multiple +, increased activity as assessed visually by the increased diameter of the inhibition zone; +++++: multiple +, increased activity as assessed visually by the increased diameter of the inhibition zone; -, no inhibition; details: indicator C. parapsilosis
Protocol: (§1) Antimicrobial activity of isolate MMA7 against the indicator strains was initially assessed with a deferred antagonism assay as described by Phelan et al. (2012). Subsequent testing of supernatants, crude extracts and purified compounds was carried out with a well and/or a spot on lawn assays. Essentially, 5 µl of samples were spotted onto 20 ml agar plates seeded with the indicator strain to a final OD600 of 0.015, or 30 µl aliquots were applied to a 5 mm well made on identical plates.

P. aeruginosa = assay: Spot on lawn assay; format: cell-based, Pseudomonas aeruginosa PAO1; parameters: key: +, clear halo of growth inhibition; ++: multiple +, increased activity as assessed visually by the increased diameter of the inhibition zone; +++: multiple +, increased activity as assessed visually by the increased diameter of the inhibition zone; ++++: multiple +, increased activity as assessed visually by the increased diameter of the inhibition zone; +++++: multiple +, increased activity as assessed visually by the increased diameter of the inhibition zone; -, no inhibition; details: indicator P. aeruginosa; *activity only detected with 4 to 5 times more peptide than that used for the other indicators
Protocol: as §1

C. sporogenes = assay: Spot on lawn assay; format: cell-based, Clostridium sporogenes NCDO 1791; parameters: key: +, clear halo of growth inhibition; ++: multiple +, increased activity as assessed visually by the increased diameter of the inhibition zone; +++: multiple +, increased activity as assessed visually by the increased diameter of the inhibition zone; ++++: multiple +, increased activity as assessed visually by the increased diameter of the inhibition zone; +++++: multiple +, increased activity as assessed visually by the increased diameter of the inhibition zone; -, no inhibition; details: indicator C. sporogenes
Protocol: as §1

L. monocytogenes [2] = assay: Mode of action: growth of the indicator in 96 well plates (optical density, cfu); format: cell-based, Listeria monocytogenes EGDe
Protocol: Initially 100 µl aliquots of a two-fold serial dilution of the MB 12h cultures CFS, ASCE and the purified peptide (approx. 150 µg ml^-1), were applied to individual wells on a 96 flat bottom multiple well plate (Sarstedt). An overnight culture of the indicator strain was diluted to an OD595 of 0.05 and 100 µl were applied to each of the wells containing the bioactive peptide. The plate was incubated at 37 °C, with agitation (200 rpm) and the optical density (595 nm) was monitored hourly. Wells where the indicator was added to water only were used as negative controls. Subsequently, 100 µl of indicator overnight cultures diluted to an OD595 of 0.05 were applied to individual wells on a 96 well plate and allowed to grow to an OD595 of 0.5-0.6. 100 µl of a two-fold serial dilutions of the CFS, the respective ASCE and purified peptide, or water, were then applied to the different wells and growth continued to be monitored hourly. At the different time points samples were taken and the number of cfu determined by plating dilutions onto appropriate agar plates.

S. aureus = assay: Spot on lawn assay; format: cell-based, Staphylococcus aureus NCDO 949; parameters: key: +, clear halo of growth inhibition; ++: multiple +, increased activity as assessed visually by the increased diameter of the inhibition zone; +++: multiple +, increased activity as assessed visually by the increased diameter of the inhibition zone; ++++: multiple +, increased activity as assessed visually by the increased diameter of the inhibition zone; +++++: multiple +, increased activity as assessed visually by the increased diameter of the inhibition zone; -, no inhibition; details: indicator S. aureus
Protocol: as §1

VRE = assay: Spot on lawn assay; format: cell-based, VRE EC725; parameters: key: +, clear halo of growth inhibition; ++: multiple +, increased activity as assessed visually by the increased diameter of the inhibition zone; +++: multiple +, increased activity as assessed visually by the increased diameter of the inhibition zone; ++++: multiple +, increased activity as assessed visually by the increased diameter of the inhibition zone; +++++: multiple +, increased activity as assessed visually by the increased diameter of the inhibition zone; -, no inhibition; details: indicator VRE
L. innocua = assay: Spot on lawn assay; format: cell-based, Listeria innocua DPC 3567; parameters: key: +, clear halo of growth inhibition; ++: multiple +, increased activity as assessed visually by the increased diameter of the inhibition zone; +++: multiple +, increased activity as assessed visually by the increased diameter of the inhibition zone; ++++: multiple +, increased activity as assessed visually by the increased diameter of the inhibition zone; +++++: multiple +, increased activity as assessed visually by the increased diameter of the inhibition zone; -, no inhibition; details: indicator L. innocua
Protocol: as §1

C. albicans = assay: Spot on lawn assay; format: cell-based, Candida albicans SC5314; parameters: key: +, clear halo of growth inhibition; ++: multiple +, increased activity as assessed visually by the increased diameter of the inhibition zone; +++: multiple +, increased activity as assessed visually by the increased diameter of the inhibition zone; ++++: multiple +, increased activity as assessed visually by the increased diameter of the inhibition zone; +++++: multiple +, increased activity as assessed visually by the increased diameter of the inhibition zone; -, no inhibition; details: indicator C. albicans
Protocol: as §1

L. monocytogenes [3] = assay: Activity at different pH values, spot on lawn assay
Candida strains = assay: Spot on lawn assay; format: cell-based; details: any of the Candida strains
Protocol: as §1
The activity of the purified peptide was tested together with its ASCE preparations, against the strains which were initially used as indicators on the colony overlay assay with the producing strain MMA7 (Table 4). […] No activity was detected against any of the Candida strains.

C=C1NC(=O)[C@@H]2CSC[C@@H](NC(=O)[C@@H]3CS[C@@H](C)[C@H]4NC(=O)[C@H](Cc5ccccc5)NC(=O)[C@H](NC(=O)[C@H](CCCNC(=N)N)NC(=O)[C@@H]5CSC[C@@H](NC(=O)[C@H](CCC(N)=O)NC(=O)[C@@H](NC(=O)[C@@H](NC(=O)/C(=C/C)NC(=O)[C@H](CCCCN)NC(=O)CNC(=O)[C@@H](NC(=O)/C(=C/C)NC(=O)[C@H](C)NC(=O)[C@H](Cc6c[nH]c7ccccc67)NC(=O)C(=O)CC)[C@@H](C)CC)[C@@H](C)CC)C(C)C)C(=O)N[C@@H](C(C)C)C(=O)N[C@@H](CCCCN)C(=O)N[C@@H](CCCCN)C(=O)N5)[C@H](C)SC[C@H](NC4=O)C(=O)NCC(=O)N3)C(=O)N[C@@H](CC(C)C)C(=O)NCC(=O)N[C@H](CSC[C@@H](C(=O)N[C@@H](CC(N)=O)C(=O)O)NC(=O)[C@H](CC(N)=O)NC1=O)C(=O)N2 [Subtilomycin]
Activity after storage ([1]; after 5 months storage at -20 °C and -80 °C): No activity | Activity after storage ([1]; stored at 4 °C and room temperature, after two weeks): lost their activity | Period of storage with retained activity ([1]; stored at -20 °C and -80 °C, spot on lawn against L. monocytogenes and B. cereus): up to 4 months | Antimicrobial activity, spot on lawn assay (hVISA): + | Antimicrobial activity, spot on lawn assay (C. parapsilosis): - | Antimicrobial activity, spot on lawn assay (P. aeruginosa): +* | Antimicrobial activity, spot on lawn assay (C. sporogenes): +++ | Nature of the inhibitory activity (mode of action) (L. monocytogenes [2]; L. monocytogenes): bacteriolytic action | Effect on growth of the indicator (L. monocytogenes [2]; L. monocytogenes grown in presence of sample from the beginning of growth (T0), samples from 12 h MB cultures): completely abolish growth | Antimicrobial activity, spot on lawn assay (S. aureus): + | Antimicrobial activity, spot on lawn assay (VRE): - | Antimicrobial activity, spot on lawn assay (L. innocua): ++ | Antimicrobial activity, spot on lawn assay (C. albicans): - | Activity at different pH (L. monocytogenes [3]; pH 9, 1 h at room temperature): reduction in activity | Activity at different pH (L. monocytogenes [3]; pH range 2 to 8, 1 h at room temperature): fully active | Activity at different pH (L. monocytogenes [3]; pH values higher than 9 (up to 11)): no activity | Antimicrobial activity (Candida strains): No activity
